Source: DBAASP
Converted amounts (≈) assume the structure as drawn. Each block holds one molecule with its values, some of them ahead of it.

What was measured:
Assay in all cases: ≥ marks a high value that may be exact or a test limit, other limits are often not marked, values filed in µg/mL are converted to µM
[1] = tested on: Acinetobacter baumannii NM8
[2] = tested on: Staphylococcus aureus 127/08
[3] = tested on: Stenotrophomonas maltophilia B32/4
[4] = tested on: Staphylococcus aureus ATCC 25923
[5] = tested on: Escherichia coli ATCC 25726
[6] = tested on: Acinetobacter baumannii NM124
[7] = tested on: Stenotrophomonas maltophilia B32/1
[8] = tested on: Escherichia coli KCTC 1682
[9] = tested on: Salmonella typhimurium KCTC 1926
[10] = tested on: Listeria monocytogenes KCTC 3710
[11] = tested on: Staphylococcus aureus KCTC 1621
[12] = tested on: Candida albicans CCARM 14007
[13] = tested on: Candida albicans KCTC 7270
[14] = tested on: Bacillus subtilis KCTC 1918
[15] = tested on: Pseudomonas aeruginosa KCTC 1637
[16] = tested on: Candida albicans CCARM 14020
[17] = tested on: Candida albicans CCARM 14001
[18] = tested on: Escherichia coli CCARM 1238
[19] = tested on: Escherichia coli CCARM 1229
[20] = tested on: Trichosporon beigelii KCTC 7707
[21] = tested on: Escherichia coli SBS 363
[22] = tested on: Micrococcus luteus CIP 5345
[23] = tested on: Vibrio nigripulchritudo CIP 103195
[24] = tested on: Bacillus megaterium CIP 6620
[25] = tested on: Microbacterium maritypicum CIP 105733T
[26] = tested on: Staphylococcus aureus CIP 103428
[27] = tested on: Vibrio splendidus CIP 107715
[28] = tested on: Staphylococcus aureus SG511
[29] = tested on: Staphylococcus haemolyticus
[30] = tested on: Corynebacterium stationis CIP 101282
[31] = tested on: Enterococcus gallinarum
[32] = tested on: Enterococcus faecalis
[33] = tested on: Acinetobacter baumannii
[34] = tested on: Raoultella terrigena
[35] = tested on: Pseudomonas aeruginosa
[36] = tested on: Staphylococcus epidermidis T6/19
[37] = tested on: Staphylococcus epidermidis RP62A
[38] = tested on: Klebsiella pneumoniae ATCC 700603
[39] = tested on: Staphylococcus epidermidis RP62A/1
[40] = tested on: Stenotrophomonas maltophilia B5/5
[41] = tested on: Acinetobacter baumannii NM35
[42] = tested on: Candida albicans ATCC 90028
[43] = tested on: Staphylococcus aureus 145/08
[44] = tested on: Enterococcus faecalis ATCC 29212
[45] = tested on: Pseudomonas aeruginosa ATCC 27853
[46] = tested on: Staphylococcus capitis 1
[47] = tested on: Bacillus megaterium Bm11
[48] = tested on: Escherichia coli ATCC 25922
[49] = tested on: Yersinia pseudotuberculosis YPIII
[50] = tested on: Staphylococcus aureus Cowan 1
[51] = tested on: Candida albicans ATCC 10231

Compound: CC[C@H](C)[C@@H]1NC(=O)[C@H](CCCCN)NC(=O)[C@@H](NC(=O)[C@H](C)NC(=O)[C@@H](NC(=O)[C@H](CC(C)C)NC(=O)[C@H](CC(=O)O)NC(=O)[C@@H](NC(=O)CNC(=O)[C@H](CC(C)C)NC(=O)[C@H](CCCCN)NC(=O)[C@H](C)NC(=O)[C@H](CC(C)C)NC(=O)[C@H](CC(=O)O)NC(=O)[C@H](CCCCN)NC(=O)CNC(=O)[C@H](CC(C)C)NC(=O)CNC(=O)[C@H](CCCCN)NC(=O)[C@H](CO)NC(=O)[C@H](C)NC(=O)[C@H](Cc2ccccc2)NC(=O)[C@@H](N)CCCCN)C(C)C)C(C)C)CSSC[C@@H](C(=O)O)NC(=O)[C@H](CCC(N)=O)NC(=O)[C@H](CCCCN)NC(=O)[C@H](CO)NC1=O [KFASKGLGKDLAKLGVDLVACKISKQC]
- MIC [1]: ≥ 200 µM
- MIC [2]: ≥ 200 µM
- MIC [3]: ≥ 50 µM
- MIC [4]: > 200 µM
- MIC [5]: ≥ 200 µM
- MIC [6]: ≥ 100 µM
- MIC [7]: ≥ 100 µM

Compound: NCCCC[C@H](NC(=O)[C@H](Cc1c[nH]c2ccccc12)NC(=O)[C@H](CCCCN)NC(=O)[C@H](Cc1c[nH]c2ccccc12)NC(=O)[C@H](CCCCN)NC(=O)[C@@H](N)Cc1c[nH]c2ccccc12)C(=O)O [WKWKWK]
- MIC [8]: ≥ 256 µM
- MIC [9]: 16 µM (≈ 15.4 µg/mL)
- MIC [10]: ≥ 128 µM
- MIC [11]: ≥ 256 µM
- MIC [12]: ≥ 32 µM
- MIC [13]: ≥ 32 µM
- MIC [14]: ≥ 256 µM
- MIC [15]: ≥ 64 µM
- MIC [16]: ≥ 32 µM
- MIC [17]: ≥ 32 µM
- MIC [18]: ≥ 256 µM
- MIC [19]: ≥ 256 µM
- MIC [20]: 16 µM (≈ 15.4 µg/mL)

Compound: CSCC[C@H](NC(=O)[C@H](C)NC(C)=O)C(=O)N[C@H](C(=O)N[C@@H](CO)C(=O)N[C@@H](CO)C(=O)O)C(C)C [AMVSS]
- MIC [31]: 23.1 µM (≈ 12.4 µg/mL)
- MIC [32]: ≥ 46.2 µM
- MIC [33]: 23.1 µM (≈ 12.4 µg/mL)
- MIC [34]: 23.1 µM (≈ 12.4 µg/mL)
- MIC [35]: 23.1 µM (≈ 12.4 µg/mL)

Compound: CC[C@H](C)[C@H](N)C(=O)N[C@@H](CCCCN)C(=O)N[C@H](C(=O)N1CCC[C@H]1C(=O)N[C@@H](CO)C(=O)N[C@@H](Cc1ccccc1)C(=O)N[C@@H](Cc1ccccc1)C(=O)N[C@@H](CCCN=C(N)N)C(=O)N[C@@H](CC(N)=O)C(=O)N[C@H](C(=O)N[C@@H](CC(C)C)C(=O)N[C@@H](CCCCN)C(=O)N[C@@H](CCCCN)C(=O)N[C@H](C(=O)NCC(=O)N[C@@H](CCCCN)C(=O)N[C@@H](CCC(=O)O)C(=O)N[C@@H](C)C(=O)N[C@H](C(=O)N[C@@H](CO)C(=O)N[C@@H](CC(C)C)C(=O)N[C@H](C(=O)N[C@@H](C)C(=O)NCC(=O)N[C@@H](C)C(=O)N[C@@H](CC(C)C)C(=O)N[C@@H](CCCCN)C(=O)N[C@@H](CCC(N)=O)C(=O)N[C@@H](CO)C(=O)O)[C@@H](C)CC)C(C)C)C(C)C)[C@@H](C)CC)[C@@H](C)CC [IKIPSFFRNILKKVGKEAVSLIAGALKQS]
- MIC [1]: 10 µM (≈ 31.6 µg/mL)
- MIC [2]: 5 µM (≈ 15.8 µg/mL)
- MIC [36]: 2.5 µM (≈ 7.89 µg/mL)
- MIC [37]: 2.5 µM (≈ 7.89 µg/mL)
- MIC [38]: 20 µM (≈ 63.1 µg/mL)
- MIC [39]: 1.25 µM (≈ 3.95 µg/mL)
- MIC [40]: 10 µM (≈ 31.6 µg/mL)
- MIC [4]: 7.07 µM (≈ 22.3 µg/mL)
- MIC [41]: 5 µM (≈ 15.8 µg/mL)
- MIC [42]: ≥ 80 µM
- MIC [43]: 10 µM (≈ 31.6 µg/mL)
- MIC [5]: 10 µM (≈ 31.6 µg/mL)
- MIC [44]: 10 µM (≈ 31.6 µg/mL)
- MIC [7]: 5 µM (≈ 15.8 µg/mL)
- MIC [45]: 20 µM (≈ 63.1 µg/mL)

More lines, main results first:

- MIC [21]: ≥ 80 µM
- MIC [22]: ≥ 80 µM
- MIC [23]: ≥ 40 µM
- MIC [24]: 20 µM (≈ 36.2 µg/mL)
- MIC [25]: 20 µM (≈ 36.2 µg/mL)
- MIC [26]: 20 µM (≈ 36.2 µg/mL)
- MIC [27]: ≥ 40 µM
- MIC [28]: 20 µM (≈ 36.2 µg/mL)
- MIC [30]: 20 µM (≈ 36.2 µg/mL)
Compound: CC[C@H](C)[C@H](NC(=O)[C@@H]1CCCN1C(=O)CN)C(=O)N[C@@H](CCCN=C(N)N)C(=O)N[C@@H](CCCN=C(N)N)C(=O)N1CCC[C@H]1C(=O)N[C@@H](CCCCN)C(=O)N1CCC[C@H]1C(=O)N[C@@H](CCCN=C(N)N)C(=O)N1CCC[C@H]1C(=O)N[C@@H](CCCN=C(N)N)C(=O)N1CCC[C@H]1C(=O)N[C@@H](CCCN=C(N)N)C(=O)N1CCC[C@H]1C(=O)N[C@@H](CCC(=O)O)C(=O)O [GPIRRPKPRPRPRPE]
- MIC [29]: 20 µM (≈ 36.2 µg/mL)

- MIC [46]: ≥ 40 µM
- MIC [47]: ≥ 40 µM
- MIC [48]: > 40 µM
- MIC [49]: ≥ 40 µM
- MIC [50]: ≥ 40 µM
- MIC [51]: > 40 µM
Compound: CC[C@H](C)[C@H](NC(=O)CNC(=O)[C@H](CO)NC(=O)[C@H](C)NC(=O)[C@@H](NC(=O)[C@H](CCCN=C(N)N)NC(=O)CNC(=O)[C@@H](NC(=O)[C@H](CC(C)C)NC(=O)[C@@H]1CCCN1C(=O)[C@H](CC(C)C)NC(=O)[C@@H](N)Cc1ccccc1)[C@@H](C)CC)C(C)C)C(=O)N[C@@H](CC(C)C)C(N)=O [FLPLIGRVASGIL]
